The values that follow come from patent US8476434B2, “Protein kinase modulators and method of use” (Amgen Inc., priority 2004, dated 2013).

In this experiment the target is T1, LCK KD GST (225-509) (Homo sapiens, UniProt P06239).
T1 construct: LCK KD GST (225-509); GST
Kind of experiment: LCK Homogenous Time Resolved Fluorescent (HTRF) kinase assay. The class given is biochemical.

T1 sequence (P06239 225-509): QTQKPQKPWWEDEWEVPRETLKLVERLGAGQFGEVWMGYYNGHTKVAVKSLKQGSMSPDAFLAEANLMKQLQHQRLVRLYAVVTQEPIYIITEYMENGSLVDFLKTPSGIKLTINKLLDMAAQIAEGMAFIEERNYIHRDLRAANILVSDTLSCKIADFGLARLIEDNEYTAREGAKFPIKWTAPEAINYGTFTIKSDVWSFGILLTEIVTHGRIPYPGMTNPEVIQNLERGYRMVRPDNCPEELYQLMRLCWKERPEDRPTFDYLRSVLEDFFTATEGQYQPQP

Turning to `Cc1ccc(C(=O)N[C@H](C)C2CCCCC2)cc1Nc1ncccc1-c1ccncn1` [N-((1R)-1-cyclohexylethyl)-4-methyl-3-((3-(4-pyrimidinyl)-2-pyridinyl)amino)benzamide], the half-maximal inhibitory concentration (IC50) (as a rule, the concentration needed to halve the response being measured) was below 1000 nM.
